Test results: patent US8735443B2, “Method of treating diabetes-related vascular complications” (Kuwait University, priority 2008, dated 2014)

Legend:
[1] = test system: aortic tissue; experiment: Aortic superoxide production, lucigenin-enhanced chemiluminescence; type: in vivo, rat; settings: GK rats, LA 50 mg/kg i.p. daily for four weeks
Description: In the study, with regard to measurement of vascular superoxide anion formation, O2^− concentration in aortic tissue was determined using a lucigenin-enhanced chemiluminescence method, and the resulting data were further confirmed by a cytochrome c-based technique. Segments of the thoracic aorta were placed into 2 ml Krebs-Henseleit buffer (KHB, pH 7.4), and prewarmed to 37° C. for one hour. Immediately before measurement, rings were transferred to scintillation vials containing KHB with 5 μmol/L lucigenin and the O2^− generated chemiluminescence was recorded for five minutes with a scintillation counter. The amount of O2^− produced was quantified using a standard curve of O2^− generation by xanthine/xanthine oxidase and the data are expressed as nmol per min, per mg, of wet weight. In some experiments, vessels were denuded of endothelium by gentle rubbing of the luminal surface, whereas in others, N^ω-nitro-L-arginine methyl ester (L-NAME) 0.1 mM, diphenylene iodonium 0.1 mM, or apocynin 3 mM were added 60 min before determining O2^− generation.

[2] = test system: NAD(P)H oxidase; experiment: NAD(P)H oxidase activity in aortic homogenates (lucigenin photoemission); type: biochemical, rat; settings: GK rats after LA therapy
Description: Determination of NAD(P)H oxidase activity in the aorta was determined based on superoxide induced lucigenin photoemission. Enzyme assays were carried out in a final volume of 1 ml. containing (in mM) 50 phosphate buffer; pH 7.0, 1 EGTA, 150 sucrose, 0.5 lucigenin, 0.1 NAD(P)H and tissue homogenate. Enzyme reactions were initiated with the addition of lucigenin. Photoemission, expressed in terms of relative light units (RLU), was measured every 5 min. using a luminometer. All assays were carried out in the dark at room temperature.

[3] = test system: nox-1; experiment: Aortic mRNA expression by real-time PCR, nox-1; type: in vivo, rat; settings: aorta of LA-treated GK rats
Description: (§1) Further, with regard to quantitative real-time polymerase chain reactions (PCR) in the study, total RNA from the arterial samples was isolated using TRIZOL® reagent, and RNA integrity was verified by agarose gel electrophoresis and quantified by spectrophotometry. Reverse transcription reaction of total RNA (5 μg) was performed using a superscript 111 first-strand synthesis system. Quantitative real-time PCR was performed using fast SYBR Green QPCR. […]
(§2) The housekeeping gene beta-actin was used for internal normalization. Fidelity of the PCR reaction was determined by melting temperature analysis. PCR efficiency for each primer pair was determined by quantitating amplification with increasing concentration of template cDNA. […] RNA expression of target genes was calculated based on the real-time PCR efficiency E and the threshold crossing point (CP) and is expressed relative to the reference gene beta-actin.

[4] = test system: caspase 3/7; experiment: Caspase 3/7 activity in aorta (APO-ONE assay); type: in vivo, rat; settings: chronic LA treatment, GK rats
Description: For detection of caspase 3-like activity, protein was isolated and caspase activity was detected in resulting supernatant using an APO-ONE homogenous caspase 3/7 assay (Promega). With regard to subcellular fractionation and western blotting, aortic tissue nuclear extracts were prepared and protein (40 μg) was loaded in each well of […] polyacrylamide gel. Separated polypeptide was transferred to nitrocellulose membrane IBio-Rad) and probed with anti NFκB at a 1:2,000 […]. Chemiluminescent detection was performed by an ECL Western Blotting Detection Kit®.

[5] = test system: TNF-α; experiment: Aortic mRNA expression by QRT-PCR, TNF-α; type: in vivo, rat; settings: GK rats, LA chronic therapy
Description: as §1, §2

[6] = test system: diabetic fibroblasts; experiment: Inflammatory cytokine transcription in fibroblasts, RT-PCR; type: cell-based, rat; settings: lipoic acid 500 μM, Nrf2-dependent
Excerpt: To determine the effect of α-lipoic acid on isolated cells from normal and diabetic rats, primary rat fibroblasts were derived from dorsal skin biopsies performed on four diabetic Coto Kakizaki rats (DFs) and four age-matched (12-14 months) and sex-matched (female) Wistar control rats (CFs). After sterilization in povidine solution, the rat skin was washed in sterile water and rinsed in 70% ethanol in phosphate-buffered saline (PBS). The epidermis and dermis were separated following overnight incubation in 0.25% Trypsin/EDTA at 4° C. Samples were washed, diced and digested for thirty minutes at 37° C. in collagenase type I (250 U/ml) dissolved in Dulbecco's modified Eagle medium (DMEM; Invitrogen) containing penicillin (100 U/ml), 2 mM L-glutamine and 26 mM HEPES. After collagenase treatment, the cells were dislodged, centrifuged and resuspended in medium supplemented with 10% fetal bovine serum. […]
With regard to cytokine transcription levels, Total RNA was isolated from cultured fibroblasts using Trizol reagent (Invitrogen) and 1 μg from each sample was reverse transcribed for 1 hr at 37° C. using the High Capacity cDNA Reverse Transcription Kit. Real-time quantitative RT-PCR was performed with the TaqMan Gene Expression Assay and was normalized against […] using an ABI 7900 Real-time PCR System (Applied Biosystems). […]

[7] = test system: HEK-499 cells; experiment: Viability of cells exposed to cisplatin; type: cell-based; settings: 500 microMolar α-lipoic acid in the media prior to cisplatin at variable doses
Excerpt: (§3) Alpha-lipoic acid increased HEK-499 cells, which were engineered to be resistant to chemotherapies and radiotherapies by depleting Raf Kinase inhibitory protein resistance to lethal doses of cisplatin, a chemical used in cancer therapy.

[8] = test system: NF-κB; experiment: NF-κB expression by western blotting, HEK-499; type: cell-based; settings: HEK-499 cells exposed to α-lipoic acid
Excerpt: as §3

[9] = test system: NF-κB; experiment: NF-κB expression by western blotting, HEK-293; type: cell-based; settings: HEK-293 (parental cells) exposed to α-lipoic acid
Excerpt: as §3

O=C(O)CCCCC1CCSS1 (stereo not drawn) [LA, alpha-lipoic acid]
diabetes-mediated increase in aortic superoxide production [1]: suppression
NAD(P)H oxidase driven O2− generation in homogenates of diabetic aorta [2]: significantly attenuated
rate of gene expression of nox-1 subunit [3]: tended to reduce
reduction of caspase 3/7 in diabetic arteries [4]: 48%
diabetes related up-regulation of TNF-α mRNA (aorta) [5]: Reversal
transcription of inflammatory cytokines in diabetic fibroblasts [6]: decreases
protection of cells from lethal doses of cisplatin [7]: significantly protected
NF-κB expression [8]: significant increase
NF-κB expression [9]: significant increase
